According to patent US7981875B2, “2″ oxo-voruscharin and derivatives thereof” (priority 2002, dated 2011):

Tested on: Hs683 human cancer cells
Test: Cell cycle kinetics by flow cytometry (propidium iodide)
Assay type: cell-based
Design: key to Effect on cell cycle kinetics, G0/G1 / Effect on cell cycle kinetics, S / Effect on cell cycle kinetics, G2/M: n.s. means no significant; ** means highly significant; *** very highly significant
Experimental: Cell lines were seeded in flasks (25 cm^2 area) containing 7 ml of culture medium. After 48 hours incubation at 37° C. the cell culture medium was replaced by a fresh medium in which the substance to be tested had been dissolved at the different concentrations required. Uscharin and 2″ oxo-voruscharin were tested at concentrations, which kill 50% and 30% of the cell population, represented by the IC50 and IC30 values, respectively. After 24 or 72 hours of treatment the cells were harvested in suspension, washed in Phosphate Buffer Saline (PBS) at 4° C. and permeabilized with 70% ethanol (at 4° C.) overnight at −20° C. The cells were then washed with PBS and incubated with propidium iodide solution (80 μg/ml) for 30 minutes at 37° C. and afterward at 4° C. overnight. Ribonuclease A (3% V/V) was added to the PI solution to break doubled-stranded RNA. The portrait of the cell cycle was established for each sample. Software incorporated into the flow cytometer was used to define precisely the percentage of cells in the different cell cycle phases. Each cell cycle phase was reported in terms of peak surface and calculated as a percentage. The surface of the entire cell cycle was 100%. Each experiment was carried out 3 times. The mean percentage of each different phase and the standard error of the related mean were calculated. Each cell cycle phase of a given condition was compared with the same cell cycle phase of control. The non-treated cells constituted control.
Uscharin and 2″ oxo-voruscharin are highly toxic to human tumor cell lines. The concentrations used in the flow cytometry experiments were chosen in accordance with the MTT results (example 2). Three human cancer cell lines, Hs683, J82, and HCT-15 were tested and doses that killed 30 and 50 percent of the cells were applied to investigate whether uscharin and 2″ oxo-voruscharin promoted an accumulation in one of the cell cycle phases when the cell cultures were treated for 24 or 72 hours with increasing concentrations of the compounds. The IC50 and IC30 values for uscharin and 2″ oxo-voruscharin corresponding to the three tested cell lines are represented in Table E.

## CC1CC2(NC(=O)CS2)C2(O)OC3CC4(C=O)C(CCC5C4CCC4(C)C(C6=CC(=O)OC6)CCC54O)CC3OC2O1 (stereo not shown) [2″oxo-voruscharin, 2″ oxo-voruscharin]
Hs683, 8.3×10^−9 M after 24 hours and both concentrations for 72 hours, significant
  cell cycle, G2/M phase: accumulation in G2/M phase
Hs683, 24 h
  Effect on cell cycle kinetics, G0/G1: n.s.
  Effect on cell cycle kinetics, G2/M: ***
  Effect on cell cycle kinetics, S: n.s.
Hs683, 72 h
  Effect on cell cycle kinetics, G0/G1: n.s.
  Effect on cell cycle kinetics, G2/M: **
  Effect on cell cycle kinetics, S: n.s.
